Source: ChEMBL document CHEMBL5346941, “Design, synthesis and evaluation of novel monoamine oxidase B (MAO-B) inhibitors with improved pharmacokinetic properties for Parkinson's disease” (Eur J Med Chem, 2023)
The source made the active and inactive calls. The rule behind the calls is not given here.

Key:
[1] = target: CYP2C19 (Homo sapiens, UniProt P33261); assay: Inhibition of CYP2C19 in human liver microsomes using omeprazole as substrate at 10 uM incubated for 45 mins in presence of NADPH by LC-MS/MS analysis relative to control; assay type: ADME, Microsome; settings: probe omeprazole
[2] = Metabolic stability in human liver microsomes assessed as intrinsic clearance at 1 uM incubated for 60 mins in presence of NADPH by LC-MS/MS analysis; assay type: ADME, Microsome; settings: read-out: CLH
[3] = test system: Mus musculus; assay: Anti-parkinson activity in C57BL/6 mouse model of MPTP-induced dopamine deficits assessed as increase in dopamine concentration in striatum at 1 to 3 mg/kg, ip pretreated for 30 mins followed by MPTP addition and measured after 5 days by HPLC analysis; assay type: functional, organism-based; settings: dose 1-3 mg/kg, time 120.5 hrs
[4] = Ratio of drug concentration in Sprague-Dawley brain to plasma at 5 mg/kg, ip measured after 15 mins by LC-MS/MS analysis; assay type: ADME, organism-based; settings: rat, read-out: BPR
[5] = target: T1, CYP1A2 (Homo sapiens, UniProt P05177); assay: Inhibition of CYP1A2 in human liver microsomes using ethoxyresorufin as substrate at 10 uM incubated for 10 mins in presence of NADPH by LC-MS/MS analysis relative to control; assay type: ADME, Microsome; settings: probe ethoxyresorufin
T1 sequence (P05177 whole entry): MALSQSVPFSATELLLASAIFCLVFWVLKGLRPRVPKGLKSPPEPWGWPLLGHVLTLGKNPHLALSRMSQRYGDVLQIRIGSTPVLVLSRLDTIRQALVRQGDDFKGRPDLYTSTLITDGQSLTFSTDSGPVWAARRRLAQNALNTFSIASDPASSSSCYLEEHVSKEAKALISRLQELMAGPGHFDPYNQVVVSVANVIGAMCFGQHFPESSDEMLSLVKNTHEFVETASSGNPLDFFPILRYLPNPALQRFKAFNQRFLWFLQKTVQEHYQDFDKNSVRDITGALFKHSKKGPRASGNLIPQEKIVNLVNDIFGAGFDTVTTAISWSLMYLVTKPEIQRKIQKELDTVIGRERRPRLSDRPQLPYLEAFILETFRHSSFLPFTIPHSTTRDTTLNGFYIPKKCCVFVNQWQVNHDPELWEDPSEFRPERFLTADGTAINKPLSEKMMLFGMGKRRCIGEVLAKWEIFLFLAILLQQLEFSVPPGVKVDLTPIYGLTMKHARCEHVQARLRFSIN

[6] = Metabolic stability in monkey liver microsomes assessed as intrinsic clearance at 1 uM incubated for 60 mins in presence of NADPH by LC-MS/MS analysis; assay type: ADME, Macaca mulatta, Microsome; settings: rhesus monkey, read-out: CLH
[7] = Elimination half life in fasted Sprague-Dawley rat at 1 mg/kg, iv measured for 24 hrs; assay type: ADME, organism-based; settings: in vivo, read-out: beta t1/2 (converted)
[8] = Metabolic stability in monkey liver microsomes assessed as half life at 1 uM incubated for 60 mins in presence of NADPH by LC-MS/MS analysis; assay type: ADME, Macaca mulatta, Microsome; settings: rhesus monkey
[9] = target: CYP2C9 (Homo sapiens, UniProt P11712); assay: Inhibition of CYP2C9 in human liver microsomes using diclofenac as substrate at 10 uM incubated for 10 mins in presence of NADPH by LC-MS/MS analysis relative to control; assay type: ADME, Microsome; settings: probe diclofenac
[10] = Cmax in fasted Sprague-Dawley rat at 5 mg/kg, IG measured for 24 hrs; assay type: ADME, organism-based; set-up: dose 5 mg/kg, time 24 hrs, route ig; settings: in vivo, po
[11] = Protein binding in human plasma at 1 uM incubated for 5 hrs by LC-MS/MS based rapid equilibrium dialysis method; assay type: ADME, cell-free; settings: read-out: PPB (converted)
[12] = Metabolic stability in dog liver microsomes assessed as half life at 1 uM incubated for 60 mins in presence of NADPH by LC-MS/MS analysis; assay type: ADME, Canis lupus familiaris, Microsome
[13] = Drug concentration in Sprague-Dawley rat brain at 5 mg/kg, ip measured after 60 mins by LC-MS/MS analysis; assay type: ADME, organism-based; settings: read-out: Ct
[14] = Elimination half life in fasted ICR mouse at 2 mg/kg, iv measured for 24 hrs; assay type: ADME, organism-based; settings: in vivo, read-out: beta t1/2 (converted)
[15] = Metabolic stability in rat liver microsomes assessed as half life at 1 uM incubated for 60 mins in presence of NADPH by LC-MS/MS analysis; assay type: ADME, Microsome
[16] = test system: Mus musculus; assay: Anti-parkinson activity in MPTP-induced dopamine deficit C57BL/6 mouse model assessed as increase in dopamine concentration in striatum at 3 to 10 mg/kg, ip pretreated with MPTP for 4 hrs followed by compound administration for 5 times once every 4 hrs further incubated with benserazide at 12.5 mg/kg for 30 mins prior to last dose and measured after 30 mins by HPLC analysis; assay type: functional, organism-based; settings: dose 3-10 mg/kg, time 16.5 hrs
[17] = AUC (0 to t) in fasted ICR mouse at 2 mg/kg, iv measured for 24 hrs; assay type: ADME, organism-based; set-up: dose 2 mg/kg, time 24 hrs, route iv; settings: in vivo
[18] = Protein binding in rat plasma at 1 uM incubated for 5 hrs by LC-MS/MS based rapid equilibrium dialysis method; assay type: ADME, cell-free; settings: read-out: PPB (converted)
[19] = target: T2, CYP2B6 (Homo sapiens, UniProt P20813); assay: Inhibition of CYP2B6 in human liver microsomes using bupropion as substrate at 10 uM incubated for 10 mins in presence of NADPH by LC-MS/MS analysis relative to control; assay type: ADME, Microsome; settings: probe bupropion
T2 sequence (P20813 whole entry): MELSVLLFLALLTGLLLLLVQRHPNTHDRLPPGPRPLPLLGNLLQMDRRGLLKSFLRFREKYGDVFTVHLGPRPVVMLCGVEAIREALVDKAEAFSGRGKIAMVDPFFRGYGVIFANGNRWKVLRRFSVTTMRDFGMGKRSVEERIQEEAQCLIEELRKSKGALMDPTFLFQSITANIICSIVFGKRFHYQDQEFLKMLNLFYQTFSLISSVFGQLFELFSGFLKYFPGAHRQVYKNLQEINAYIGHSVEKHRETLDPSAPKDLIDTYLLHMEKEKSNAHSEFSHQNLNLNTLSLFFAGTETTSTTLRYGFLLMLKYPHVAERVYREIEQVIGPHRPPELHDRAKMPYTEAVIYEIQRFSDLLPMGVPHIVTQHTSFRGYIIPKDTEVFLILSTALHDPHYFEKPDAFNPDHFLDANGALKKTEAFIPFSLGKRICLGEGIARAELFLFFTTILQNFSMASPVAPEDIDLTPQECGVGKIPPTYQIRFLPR

[20] = Bioavailability in fasted ICR mouse at 5 mg/kg, IG measured for 24 hrs; assay type: ADME, organism-based; settings: in vivo, po
[21] = Protein binding in dog plasma at 1 uM incubated for 5 hrs by LC-MS/MS based rapid equilibrium dialysis method; assay type: ADME, cell-free, Canis lupus familiaris; settings: read-out: PPB (converted)
[22] = AUC (0 to t) in fasted ICR mouse at 5 mg/kg, IG measured for 24 hrs; assay type: ADME, organism-based; set-up: dose 5 mg/kg, time 24 hrs, route ig; settings: in vivo, po
[23] = In vivo inhibition of MAO-B in ICR mouse assessed as reduction in enzyme activity in brain by measuring fold change at 1.28 mg/kg, ip administered once for 30 to 60 mins by amplex red based assay relative to safinamide; assay type: functional; settings: time 30-60 min
[24] = Volume of distribution at steady state in fasted Sprague-Dawley rat at 1 mg/kg, iv measured for 24 hrs; assay type: ADME, organism-based; settings: in vivo, read-out: Vdss
[25] = Metabolic stability in mouse liver microsomes assessed as intrinsic clearance at 1 uM incubated for 60 mins in presence of NADPH by LC-MS/MS analysis; assay type: ADME, Microsome; settings: read-out: CLH
[26] = Metabolic stability in dog liver microsomes assessed as intrinsic clearance at 1 uM incubated for 60 mins in presence of NADPH by LC-MS/MS analysis; assay type: ADME, Canis lupus familiaris, Microsome; settings: read-out: CLH

Chain of CYP2C19 (P33261 whole entry): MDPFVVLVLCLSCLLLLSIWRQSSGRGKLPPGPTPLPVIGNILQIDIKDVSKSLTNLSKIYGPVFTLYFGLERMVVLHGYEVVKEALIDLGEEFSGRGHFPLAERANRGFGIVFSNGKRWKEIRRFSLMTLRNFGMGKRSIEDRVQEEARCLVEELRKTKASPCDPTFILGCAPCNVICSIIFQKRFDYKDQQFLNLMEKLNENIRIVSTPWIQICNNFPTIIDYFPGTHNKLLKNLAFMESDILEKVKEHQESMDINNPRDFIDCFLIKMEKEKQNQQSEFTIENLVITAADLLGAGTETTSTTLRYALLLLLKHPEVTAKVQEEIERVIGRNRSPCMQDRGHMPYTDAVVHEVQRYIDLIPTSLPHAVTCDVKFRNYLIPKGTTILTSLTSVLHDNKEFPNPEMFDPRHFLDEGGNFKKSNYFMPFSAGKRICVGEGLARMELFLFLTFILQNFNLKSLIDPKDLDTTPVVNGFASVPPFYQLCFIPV
Chain of CYP2C9 (P11712 whole entry): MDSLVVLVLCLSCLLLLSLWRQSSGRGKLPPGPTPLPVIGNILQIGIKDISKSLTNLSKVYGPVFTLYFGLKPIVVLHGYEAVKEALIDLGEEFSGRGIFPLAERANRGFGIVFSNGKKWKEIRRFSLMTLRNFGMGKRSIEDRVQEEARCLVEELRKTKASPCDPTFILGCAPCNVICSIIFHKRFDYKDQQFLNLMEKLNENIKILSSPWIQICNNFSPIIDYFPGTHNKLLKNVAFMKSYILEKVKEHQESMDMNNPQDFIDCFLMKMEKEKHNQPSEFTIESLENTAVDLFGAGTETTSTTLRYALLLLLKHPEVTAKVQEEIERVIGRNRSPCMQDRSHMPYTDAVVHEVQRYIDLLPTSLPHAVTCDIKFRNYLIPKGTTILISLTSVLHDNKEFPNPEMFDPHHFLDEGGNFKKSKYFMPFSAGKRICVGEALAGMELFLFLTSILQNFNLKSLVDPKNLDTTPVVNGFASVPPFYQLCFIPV

## NC(=O)[C@@H]1C[C@H](F)CN1Cc1ccc2oc(-c3ccc(F)cc3)cc2c1
[1]
  inhibition at 0.75 h, 10 µM: 75.9%
[2]
  CLint scaled at 1 µM: 2.5 mL/min/kg
[3]
  Activity: Active
[4]
  Kp at 0.25 h: 10.4
[5]
  inhibition at 10 min, 10 µM: 32.6%
[6]
  CLint scaled at 1 µM: 4.1 mL/min/kg
[7]
  half-life: 0.74 h
[8]
  half-life at 1 µM: 5.63 h
[9]
  inhibition at 10 min, 10 µM: 8.05%
[10]
  Cmax: 436 ng/mL
[11]
  fraction unbound at 5 h, 1 µM: 0.0058
[12]
  half-life at 1 µM: 2.45 h
[13]
  concentration at 1 h: 8750 ng/g
[14]
  half-life: 3.37 h
[15]
  half-life at 1 µM: 1.48 h
[16]
  Activity: Active
[17]
  AUC(0-t) at 24 h: 2680 ng·h/mL
[18]
  fraction unbound at 5 h, 1 µM: 0.0062
[19]
  inhibition at 10 min, 10 µM: 41.2%
[20]
  bioavailability: 105%
[21]
  fraction unbound at 5 h, 1 µM: 0.0036
[22]
  AUC(0-t) at 24 h: 7950 ng·h/mL
[23]
  fold change (FC): 5
[24]
  Vd: 3.33 L/kg
[25]
  CLint scaled at 1 µM: 6.9 mL/min/kg
[26]
  CLint scaled at 1 µM: 7.5 mL/min/kg
